Experimental findings from ChEMBL document CHEMBL2203042, “Novel bivalent ligands for D2/D3 dopamine receptors: Significant co-operative gain in D2 affinity and potency” (ACS Med Chem Lett, 2012) are described below.

The species entered for experiment [1] is Rattus norvegicus. Description: Selectivity ratio of Ki for rat cloned dopamine D2L receptor to Ki for rat cloned dopamine D3 receptor.
Experiment [2] addresses D(3) dopamine receptor (Rattus norvegicus, UniProt P19020). Description: Displacement of [3H]spiperone from rat cloned dopamine D3 receptor expressed in HEK-293 cells by competition binding assay. The class given is cell-based, HEK293.
Experiment [3] addresses D(2) dopamine receptor (Rattus norvegicus, UniProt P61169). Nature of the experiment: Displacement of [3H]spiperone from rat cloned dopamine D2L receptor expressed in HEK-293 cells by competition binding assay. The class given is cell-based, HEK293.

pKi: −log10 of the molar value.

Chain of D(3) dopamine receptor (P19020 whole entry): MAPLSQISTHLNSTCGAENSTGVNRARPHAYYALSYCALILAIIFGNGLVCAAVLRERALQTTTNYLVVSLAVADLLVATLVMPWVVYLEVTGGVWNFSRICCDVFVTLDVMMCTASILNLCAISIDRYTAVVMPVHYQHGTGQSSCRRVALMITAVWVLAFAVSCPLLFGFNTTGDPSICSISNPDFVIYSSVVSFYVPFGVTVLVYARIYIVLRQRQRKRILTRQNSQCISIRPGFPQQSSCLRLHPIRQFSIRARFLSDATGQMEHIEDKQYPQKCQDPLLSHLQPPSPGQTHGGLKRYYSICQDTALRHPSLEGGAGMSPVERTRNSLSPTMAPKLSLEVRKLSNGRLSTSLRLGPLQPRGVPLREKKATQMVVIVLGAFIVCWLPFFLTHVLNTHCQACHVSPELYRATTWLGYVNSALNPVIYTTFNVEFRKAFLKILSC
Chain of D(2) dopamine receptor (P61169 whole entry): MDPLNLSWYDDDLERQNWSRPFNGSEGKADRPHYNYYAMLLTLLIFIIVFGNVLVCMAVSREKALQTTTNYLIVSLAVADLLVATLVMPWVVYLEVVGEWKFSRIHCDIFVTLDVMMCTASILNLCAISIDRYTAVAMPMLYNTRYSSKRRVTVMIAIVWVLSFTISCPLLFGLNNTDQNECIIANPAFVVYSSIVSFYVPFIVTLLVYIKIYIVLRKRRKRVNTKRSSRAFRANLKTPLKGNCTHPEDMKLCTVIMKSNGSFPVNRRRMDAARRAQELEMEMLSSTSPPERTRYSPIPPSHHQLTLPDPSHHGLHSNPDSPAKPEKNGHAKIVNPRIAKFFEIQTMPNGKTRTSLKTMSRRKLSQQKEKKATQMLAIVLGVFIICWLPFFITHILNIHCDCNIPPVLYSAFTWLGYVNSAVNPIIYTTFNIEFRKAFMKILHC

In the case of `CCCN(CCCCCCCCCCCCCCN(CCC)[C@H]1CCc2c(O)cccc2C1)[C@H]1CCc2c(O)cccc2C1`, the Ratio Ki in experiment [1] amounted to 1.7. Moreover, the pKi in experiment [2] is 7.51; in experiment [3] it was 7.26.

Regarding `CCCN(CCN(CCC)[C@H]1CCc2c(O)cccc2C1)[C@H]1CCc2c(O)cccc2C1`, in experiment [1], the Ratio Ki is 14. Further, the figures for the pKi in experiment [2] and in experiment [3] were 8.96 and 7.80, respectively.

`CCCN(CCCCCCCCCCCCN(CCC)[C@H]1CCc2c(O)cccc2C1)[C@H]1CCc2c(O)cccc2C1`: in experiment [1], the Ratio Ki worked out at 1. Further, the negative logarithm of the Ki (pKi) was 8.00 in experiment [2] and 7.96 in experiment [3].

As for `CCCCCCCCCN(CCC)[C@H]1CCc2c(O)cccc2C1`, in experiment [1], the Ratio Ki was 9.4. Also, the pKi in experiment [2] is 8.14; in experiment [3], 7.16.

On to `CCCN(CCCCCN(CCC)[C@H]1CCc2c(O)cccc2C1)[C@H]1CCc2c(O)cccc2C1`, for which, in experiment [1], the Ratio Ki stood at 21. Also, the pKi in experiment [2] was 8.44; in experiment [3] it was 7.12.

For the molecule `CCCN(CCCCCCN(CCC)[C@H]1CCc2c(O)cccc2C1)[C@H]1CCc2c(O)cccc2C1`, the Ratio Ki in experiment [1] came to 2.7. Moreover, the pKi is 8.66 in experiment [2] and 8.23 in experiment [3].

Turning to `CCCN(CCCCCCCN(CCC)[C@H]1CCc2c(O)cccc2C1)[C@H]1CCc2c(O)cccc2C1`, the Ratio Ki in experiment [1] was 3.6. Further, the pKi in experiment [2] was 8.96; in experiment [3], 8.41.

`CCCN(CCCCCCCCCc1ccccc1)[C@H]1CCc2c(O)cccc2C1`: the Ratio Ki in experiment [1] amounted to 6.1. Moreover, the pKi in experiment [2] was 7.64; in experiment [3], 6.85.

For `CCCN(CCCCN(CCC)[C@H]1CCc2c(O)cccc2C1)[C@H]1CCc2c(O)cccc2C1`, in experiment [1], the Ratio Ki was 17. Further, the negative-log Ki (pKi) in experiment [2] was 8.40; in experiment [3] it was 7.15.
